Measurements: patent publication US6407206B1, “Peptides, methods for assaying human pepsinogen I or human pepsin I and assay kits” (Ono Pharmaceutical Co., Ltd., priority 1996, dated 2002)
Square brackets hold non-standard residues; d marks the D form. Ends that are not written are not given here. * marks the point of attachment. Phe(4-NO2) = N[C@@H](Cc1ccc([N+](=O)[O-])cc1)C(=O)O; pNA = O=[N+]([O-])c1ccc(N*)cc1; Nle = CCCC[C@H](N)C(=O)O

How the values were obtained:
Assay type in all cases: biochemical
human pepsin I [1] = test: Digestion of the substrate by human pepsin I, assay by HPLC (released H-Y-pNA); details: for ratio of relative activity of pepsin I/pepsin II: calculated according to the result from assay by HPLC; for Activitry of pepsin, Determination by HPLC, pepsin I: pepsin 909 ng/ml, substrate 0.5 mM, 37° C.
Method: (§1) Formic acid buffer or glycine buffer (pH2.0˜3.0) containing each peptide (0.5 mM) prepared in Example 1˜5 (a)
(§2) An aqueous solution of human pepsin I or human pepsin II (0.01 mg/ml)
(§3) Enzyme solution I (0.1 ml) was added to Reagent (1.0 ml). After incubation of the mixture at 37° C. for 10, 30, 60 minutes, the mixture solution (0.3 ml) was collected. To the collected solution, 2N—NaOH (0.025 ml) was added to terminate the reaction. After addition of 2N—HCl (0.025 ml) to the mixture, protein was removed by the ultrafiltration. The assaying H-Y-pNA (Nle-pNA: Example 1 and 2; Tyr-pNA: Example 3; Phe-pNA: Example 4; Phe(NO2)-pNA: Example 5) which was released after digesting by human pepsin in the obtained solution was carried out by HPLC using C18 column.
(§4) The ratio of pepsin I/pepsin II was calculated according to the result from assay by HPLC. Such assay is carried out to confirm that a substrate was digested by pepsin I or pepsin II correctly and that H-Y-pNA was released.

human pepsin II [2] = biological target: T1, human pepsin II (Homo sapiens, UniProt P20142); test: Digestion of the substrate by human pepsin II, assay by HPLC (released H-Y-pNA); details: pepsin 909 ng/ml, substrate 0.5 mM, 37° C.
T1 sequence (P20142 60-388): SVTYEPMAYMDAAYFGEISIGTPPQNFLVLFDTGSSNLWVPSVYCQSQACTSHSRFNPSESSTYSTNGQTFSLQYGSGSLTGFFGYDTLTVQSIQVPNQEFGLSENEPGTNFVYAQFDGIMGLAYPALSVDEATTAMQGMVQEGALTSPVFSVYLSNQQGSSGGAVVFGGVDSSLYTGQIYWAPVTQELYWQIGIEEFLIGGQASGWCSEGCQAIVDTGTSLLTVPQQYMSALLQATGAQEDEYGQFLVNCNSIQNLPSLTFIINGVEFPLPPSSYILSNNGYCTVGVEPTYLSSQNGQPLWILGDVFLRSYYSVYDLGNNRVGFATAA
Method: as §1, §2, §3, §4

human pepsin I [3] = test: Digestion of the substrate by human pepsin I, assay by coloring p-NA (aminopeptidase M, absorbance at 405 nm); details: substrate 0.5 mM, 37° C.
Method: as §1, §2
(§5) Aminopeptidase M (marketed from Beringer Manheim Co., derived from pig kidney) was dissolved into 1M Tris-HCl buffer (pH9.0) to be at concentration of 2U/I.
(§6) (2) Assay by Coloring p-NA
(§7) Enzyme solution I (0.1 ml) was added to Reagent (1.0 ml). After incubation of the mixture at 37° C. for 10 minutes, Enzyme solution II (0.05 ml) was added to the mixture solution (0.25 ml). After incubation of the mixture at 37° C. for 5 minutes, the increase in absorbance at 405 nm (Es) was determined. On the other hand, reagent blank value (E(BL)) was determined by the same procedure as above using purified water. According to the following, the increase in absorbance (E) was calculated.

human pepsin II [4] = biological target: T1, human pepsin II; test: Digestion of the substrate by human pepsin II, assay by coloring p-NA (aminopeptidase M, absorbance at 405 nm); details: substrate 0.5 mM, 37° C.
Method: as §1, §2, §5, §6, §7

[5] = reaction pH 3.0, pepsin 909 ng/ml
[6] = reaction pH 2.0, pepsin 909 ng/ml

Row | Substance | ratio of relative activity of pepsin I/pepsin II (human pepsin I [1]; reaction pH 3.0) | Activitry of pepsin, Determination by HPLC, pepsin I (human pepsin I [1]; reaction pH 3.0) [μM/min · 909 ngEnz/ml] | Activitry of pepsin, Determination by HPLC, pepsin II (human pepsin II [2]; reaction pH 3.0) [μM/min · 909 ngEnz/ml] | Activitry of pepsin, Determination by p-NA, pepsin I (human pepsin I [3]; [5]) | Activitry of pepsin, Determination by p-NA, pepsin II (human pepsin II [4]; [5]) | ratio of relative activity of pepsin I/pepsin II (human pepsin I [1]; reaction pH 2.0) | Activitry of pepsin, Determination by HPLC, pepsin I (human pepsin I [1]; reaction pH 2.0) [μM/min · 909 ngEnz/ml] | Activitry of pepsin, Determination by HPLC, pepsin II (human pepsin II [2]; reaction pH 2.0) [μM/min · 909 ngEnz/ml] | Activitry of pepsin, Determination by p-NA, pepsin I (human pepsin I [3]; [6]) | Activitry of pepsin, Determination by p-NA, pepsin II (human pepsin II [4]; [6])
1 | LysProIleGluPheNle-pNA.2CF3COOH (KPIEF[Nle]-pNA; also: trifluoroacetate salt (2CF3COOH)) [Example 2] | 23.2 | 8.6 | 0.37 | 716.7 mABS/10 min · 909 ngEnz/ml | 30.8 mABS/10 min · 909 ngEnz/ml | – | – | – | – | –
2 | LysProIleGluPhePhe(NO2)-pNA.2CF3COOH (KPIEF[Phe(4-NO2)]-pNA; also: 2 TFA salt) [Example 5] | 17.1 | 1.2 | 0.07 | 100.0 mABS/10 min · 909 ngEnz/ml | 5.8 mABS/10 min · 909 ngEnz/ml | – | – | – | – | –
3 | LysProIleGluPhePhe-pNA -2CF3COOH (KPIEFF-pNA; also: trifluoroacetate salt (2CF3COOH)) [Example 4] | 68.1 | 10.9 | 0.16 | 908.3 mABS/10 min · 909 ngEnz/ml | 13.3 mABS/10 min · 909 ngEnz/ml | – | – | – | – | –
4 | LysProIleGluPheTyr-pNA.2CF3COOH (KPIEFY-pNA; also: TFA salt (2CF3COOH)) [Example 3] | – | – | – | – | – | 46.2 | 17.1 | 0.37 | 1425.0 mABS/10 min · 909 ngEnz/ml | 30.8 mABS/10 min · 909 ngEnz/ml
5 | N^α-Ac-LysProIleGluPheNle-pNA.CF3COOH (Ac-KPIEF[Nle]-pNA; also: TFA salt) [Example 1] | – | – | – | – | – | 95.8 | 52.7 | 0.55 | 4391.7 mABS/10 min · 909 ngEnz/ml | 45.8 mABS/10 min · 909 ngEnz/ml
6 | N^α-AcLysProIleGlu-Phe(NO2)-Nle-pNA.CF3COOH (Ac-KPIE[Phe(4-NO2)][Nle]-pNA; also: TFA salt) [Example 5(a)] | – | – | – | – | – | 52.8 | 36.4 | 0.69 | 3036.2 mABS/10 min · 909 ngEnz/ml | 57.3 mABS/10 min · 909 ngEnz/ml
